# Data: patent EP3352763B1 (priority 2015, dated 2017)
# System: A/Mississippi/3/2001/Variante, H1N1
# Format: cell-based, Influenzaviren
compound,measurement,value
"O=C(/C=C/c1ccc(O)cc1)OC[C@H]1O[C@@H](Oc2c(-c3ccc(O)cc3)oc3cc(O)cc(O)c3c2=O)[C@H](O)[C@@H](O)[C@@H]1O [Tilirosid, Kaempferol-3-(6""-trans-p-coumaroyl)glucosid]",Selektivitätsindex (S.I.),1.047
same,antivirale Wirkung,antiviral wirkt
